In ChEMBL document CHEMBL1134038, “New triterpenes, myrrhanol A and myrrhanone A, from guggul-gum resins, and their potent anti-inflammatory effect on adjuvant-induced air-pouch granuloma of mice” (2001):

Tests used:
Type in all cases: functional
Mus musculus [1] = experiment: Anti-inflammatory effect on inflammatory process I (exudation: pouch fluid weight) at a log dose of -1.5g/kg, ip, in adjuvant-induced air-pouch granuloma of mice(*)
Mus musculus [2] = organism: Mus musculus; experiment: Inhibitory dose required against exudation (pouch fluid weight) tested for antiinflammatory activity in mice(parentheses value represents 95% confidence limits); details: read-out: ID50 (the source's name)
Mus musculus [3] = experiment: Anti-inflammatory effect on inflammatory process II (migration: inflammatory cell count) at a log dose of -1.5g/kg, ip, in adjuvant-induced air-pouch granuloma of mice(*)
Mus musculus [4] = experiment: Anti-inflammatory effect on inflammatory process IV (granuloma formation) at a log dose of -1.5g/kg, ip, in adjuvant-induced air-pouch granuloma of mice(*)
Mus musculus [5] = experiment: Anti-inflammatory effect on inflammatory process II (migration: inflammatory cell count) at a log dose of -3g/kg, ip, in adjuvant-induced air-pouch granuloma of mice(*)
Mus musculus [6] = experiment: Inhibitory effect on inflammatory process I (exudation: pouch fluid weight) at a log dose of -5.6mol/kg, ip relative to hydrocortisone on adjuvant-induced air-pouch granulomas of mice
Mus musculus [7] = organism: Mus musculus; experiment: Inhibitory dose required against granuloma formation tested for antiinflammatory activity in mice(parentheses value represents 95% confidence limits); details: read-out: ID50 (the source's name)
Mus musculus [8] = experiment: Weak anti-inflammatory and inflammatory effect on inflammatory process I (exudation: pouch fluid weight) at a log dose of -1.5g/kg, ip, in adjuvant-induced air-pouch granuloma of mice(**)
Mus musculus [9] = experiment: Inhibitory effect on inflammatory process II (migration: inflammatory cell count) at a log dose of -5.6mol/kg, ip relative to hydrocortisone on adjuvant-induced air-pouch granulomas of mice
Mus musculus [10] = experiment: Anti-inflammatory effect on inflammatory process III (angiogenesis: carmine content) at a log dose of -1.5g/kg, ip, in adjuvant-induced air-pouch granuloma of mice(*)
Mus musculus [11] = experiment: Weak anti-inflammatory and inflammatory effect on inflammatory process III (angiogenesis: carmine content) at a log dose of -2.2g/kg, ip, in adjuvant-induced air-pouch granuloma of mice(**)
Mus musculus [12] = experiment: Anti-inflammatory effect on inflammatory process III (angiogenesis: carmine content) at a log dose of -2.25g/kg, ip, in adjuvant-induced air-pouch granuloma of mice(*)
Mus musculus [13] = experiment: Anti-inflammatory effect on inflammatory process I (exudation: pouch fluid weight) at a log dose of -3g/kg, ip, in adjuvant-induced air-pouch granuloma of mice(*)
Mus musculus [14] = experiment: Inhibitory effect on inflammatory process IV (granuloma formation) at a log dose of -5.25mol/kg, ip relative to hydrocortisone on adjuvant-induced air-pouch granulomas of mice
Mus musculus [15] = experiment: Inhibitory effect on inflammatory process III (angiogenesis: carmine content) at a log dose of -5.25mol/kg, ip relative to hydrocortisone on adjuvant-induced air-pouch granulomas of mice
Mus musculus [16] = experiment: Weak anti-inflammatory and inflammatory effect on inflammatory process II (migration: inflammatory cell count) at a log dose of -2.2g/kg, ip, in adjuvant-induced air-pouch granuloma of mice(**)
Mus musculus [17] = experiment: Inhibitory effect on inflammatory process II (migration: inflammatory cell count) at a log dose of -6mol/kg, ip relative to hydrocortisone on adjuvant-induced air-pouch granulomas of mice
Mus musculus [18] = experiment: Anti-inflammatory effect on inflammatory process I (exudation: pouch fluid weight) at a log dose of -2.25g/kg, ip, in adjuvant-induced air-pouch granuloma of mice(*)
Mus musculus [19] = experiment: Anti-inflammatory effect on inflammatory process IV (granuloma formation) at a log dose of -2.25g/kg, ip, in adjuvant-induced air-pouch granuloma of mice(*)
Mus musculus [20] = experiment: Weak anti-inflammatory and inflammatory effect on inflammatory process I (exudation: pouch fluid weight) at a log dose of -2.2g/kg, ip, in adjuvant-induced air-pouch granuloma of mice(**)
Mus musculus [21] = experiment: Inhibitory effect on inflammatory process IV (granuloma formation) at a log dose of -5.6mol/kg, ip relative to hydrocortisone on adjuvant-induced air-pouch granulomas of mice
Mus musculus [22] = experiment: Inhibitory effect on inflammatory process IV (granuloma formation) at a log dose of -6mol/kg, ip relative to hydrocortisone on adjuvant-induced air-pouch granulomas of mice
Mus musculus [23] = experiment: Inhibitory effect on inflammatory process I (exudation: pouch fluid weight) at a log dose of -6mol/kg, ip relative to hydrocortisone on adjuvant-induced air-pouch granulomas of mice
Mus musculus [24] = experiment: Weak anti-inflammatory and inflammatory effect on inflammatory process IV (granuloma formation) at a log dose of -1.5g/kg, ip, in adjuvant-induced air-pouch granuloma of mice(**)
Mus musculus [25] = experiment: Anti-inflammatory effect on inflammatory process IV (granuloma formation) at a log dose of -3g/kg, ip, in adjuvant-induced air-pouch granuloma of mice(*)
Mus musculus [26] = experiment: Inhibitory effect on inflammatory process III (angiogenesis: carmine content) at a log dose of -6mol/kg, ip relative to hydrocortisone on adjuvant-induced air-pouch granulomas of mice
Mus musculus [27] = experiment: Anti-inflammatory effect on inflammatory process II (migration: inflammatory cell count) at a log dose of -2.25g/kg, ip, in adjuvant-induced air-pouch granuloma of mice(*)
Mus musculus [28] = experiment: Weak anti-inflammatory and inflammatory effect on inflammatory process III (angiogenesis: carmine content) at a log dose of -1.5g/kg, ip, in adjuvant-induced air-pouch granuloma of mice(**)
Mus musculus [29] = experiment: Inhibitory effect on inflammatory process III (angiogenesis: carmine content) at a log dose of -5.6mol/kg, ip relative to hydrocortisone on adjuvant-induced air-pouch granulomas of mice
Mus musculus [30] = experiment: Inhibitory effect on inflammatory process II (migration: inflammatory cell count) at a log dose of -5.25mol/kg, ip relative to hydrocortisone on adjuvant-induced air-pouch granulomas of mice
Mus musculus [31] = experiment: Weak anti-inflammatory and inflammatory effect on inflammatory process II (migration: inflammatory cell count) at a log dose of -3g/kg, ip, in adjuvant-induced air-pouch granuloma of mice(**)
Mus musculus [32] = organism: Mus musculus; experiment: Inhibitory dose required against angiogenesis (carmine content) tested for antiinflammatory activity in mice(parentheses value represents 95% confidence limits); details: read-out: ID50 (the source's name)
Mus musculus [33] = experiment: Weak anti-inflammatory and inflammatory effect on inflammatory process II (migration: inflammatory cell count) at a log dose of -1.5g/kg, ip, in adjuvant-induced air-pouch granuloma of mice(**)
Mus musculus [34] = experiment: Weak anti-inflammatory and inflammatory effect on inflammatory process IV (granuloma formation) at a log dose of -3g/kg, ip, in adjuvant-induced air-pouch granuloma of mice(**)
Mus musculus [35] = experiment: Weak anti-inflammatory and inflammatory effect on inflammatory process IV (granuloma formation) at a log dose of -2.2g/kg, ip, in adjuvant-induced air-pouch granuloma of mice(**)
Mus musculus [36] = experiment: Inhibitory effect on inflammatory process I (exudation: pouch fluid weight) at a log dose of -5.25mol/kg, ip relative to hydrocortisone on adjuvant-induced air-pouch granulomas of mice
Mus musculus [37] = experiment: Weak anti-inflammatory and inflammatory effect on inflammatory process III (angiogenesis: carmine content) at a log dose of -3g/kg, ip, in adjuvant-induced air-pouch granuloma of mice(**)
Mus musculus [38] = experiment: Anti-inflammatory effect on inflammatory process III (angiogenesis: carmine content) at a log dose of -3g/kg, ip, in adjuvant-induced air-pouch granuloma of mice(*)
Mus musculus [39] = experiment: Weak anti-inflammatory and inflammatory effect on inflammatory process I (exudation: pouch fluid weight) at a log dose of -3g/kg, ip, in adjuvant-induced air-pouch granuloma of mice(**)
Mus musculus [40] = organism: Mus musculus; experiment: Inhibitory dose required against migration (inflammatory cell count) tested for antiinflammatory activity in mice(parentheses value represents 95% confidence limits); details: read-out: ID50 (the source's name)

Row | SMILES | Relative amount (Mus musculus [1]) | ED50 (Mus musculus [2]) | Relative amount (Mus musculus [3]) | Relative amount (Mus musculus [4]) | Relative amount (Mus musculus [5]) | ED50 (Mus musculus [7]) | Relative amount (Mus musculus [8]) | Relative amount (Mus musculus [10]) | Relative amount (Mus musculus [11]) | Relative amount (Mus musculus [12]) | Relative amount (Mus musculus [13]) | Relative amount (Mus musculus [16]) | Relative amount (Mus musculus [17]) | Relative amount (Mus musculus [18]) | Relative amount (Mus musculus [19]) | Relative amount (Mus musculus [20]) | Relative amount (Mus musculus [22]) | Relative amount (Mus musculus [23]) | Relative amount (Mus musculus [24]) | Relative amount (Mus musculus [25]) | further results
1 | C/C(=C\CC/C(C)=C/CC/C(C)=C/CC[C@@H]1[C@@]2(C)CC[C@H](O)C(C)(C)C2CC[C@@]1(C)O)CO (stereo partly specified) | <15% | 1.75 µmol/kg | 60% | <55% | 80% | 5.83 µmol/kg | 25% | <50% | 65% | <52% | 45% | 70% | 105% | 35% | <65% | 27% | 85% | 70% | 60% | <70% | Relative amount (Mus musculus [6]): <20%; Relative amount (Mus musculus [9]): 90%; Relative amount (Mus musculus [14]): <50%; Relative amount (Mus musculus [15]): <30%; Relative amount (Mus musculus [21]): <75%; Relative amount (Mus musculus [26]): 87%; Relative amount (Mus musculus [27]): 65%; Relative amount (Mus musculus [28]): 50%; Relative amount (Mus musculus [29]): <47%; Relative amount (Mus musculus [30]): 115%; Relative amount (Mus musculus [31]): 100%; ED50 (Mus musculus [32]): 2.8 µmol/kg; Relative amount (Mus musculus [33]): 65%; Relative amount (Mus musculus [34]): 80%; Relative amount (Mus musculus [35]): 62%; Relative amount (Mus musculus [36]): <5%; Relative amount (Mus musculus [37]): 75%; Relative amount (Mus musculus [38]): <63%; Relative amount (Mus musculus [39]): 100%
2 | C/C(=C\CC/C(C)=C/CC/C(C)=C/CC[C@@H]1[C@@]2(C)CCC(=O)C(C)(C)C2CC[C@@]1(C)O)CO (stereo partly specified) | 60% |  | 70% | <55% | 95% |  | 250% | <50% | 185% | 83% | 75% | 170% | 75% | 65% | <68% | 225% | 75% | 90% | 100% | 80% | Relative amount (Mus musculus [26]): 105%; Relative amount (Mus musculus [27]): 85%; Relative amount (Mus musculus [28]): 180%; Relative amount (Mus musculus [31]): 85%; Relative amount (Mus musculus [33]): 175%; Relative amount (Mus musculus [34]): 65%; Relative amount (Mus musculus [35]): 100%; Relative amount (Mus musculus [37]): 90%; Relative amount (Mus musculus [38]): 83%; Relative amount (Mus musculus [39]): 70%
3 | C[C@]12CCC(=O)C=C1CCC1[C@@H]2[C@@H](O)C[C@@]2(C)[C@H]1CC[C@]2(O)C(=O)CO (single isomer, unassigned) [HYDROCORTISONE] |  | 6.31 µmol/kg |  |  |  | 29.2 µmol/kg |  |  |  |  |  |  |  |  |  |  |  |  |  |  | ED50 (Mus musculus [40]): 11.7 µmol/kg; ED50 (Mus musculus [32]): 22.1 µmol/kg
